Assay results from paper PMC12777510 (Chempluschem, 2025).
≈ marks a conversion by molar mass, not a printed value. *1 amine or outer side, *2 acyl side, *3 side chain or, on linkers, in order; H or OH if unused. Where a SMILES comes first, the peptide text is derived from it. [ ]: non-standard residue; d: D form. X1 = O=C(C[C@@H](CCCCCCCCCCC(F)(F)F)N[*:1])[*:2]

Settings: 19F NMR samples in D2O containing Saboraud Dextrose Broth (30 g/L), 5% d6-DMSO added to avoid precipitation

NC(=O)CC[C@@H]1NC(=O)[C@@H](CC(N)=O)NC(=O)[C@@H](Cc2ccc(O)cc2)NC(=O)[C@H](CC(N)=O)NC(=O)C[C@@H](CCCCCCCCCCC(F)(F)F)NC(=O)[C@H](CO)NC(=O)[C@@H](CC(N)=O)NC(=O)[C@@H]2CCCN2C1=O [Compound 9, ω‐CF3 iturin A2] (cyclo(N[dY][dN]QP[dN]S[X1]))
aqueous solubility: 100 µM (≈ 110 µg/mL)
